These results are taken from patent publication US6599499B1, “Uses of diterpenoid triepoxides as an anti-proliferative agent” (priority 1999, dated 2003).

For data set [1], the system named is MCF-7 (breast cancer) cells. As to the kind of experiment: cells. Conditions: for Percent survival: MTT after 48 h. The method, then: (§1) Cell culture and luciferase assay. A549 (non-small cell lung cancer), HT-1080 (fibrosarcoma), and MCF-7 (breast cancer) cells were cultured in the appropriate media with 10% FCS supplemented with L-glutamine, penicillin, and streptomycin. p53 wild-type (+/+) and null (−/−) Mouse Embryonic Fibroblasts (MEFs) transfected with the E1A/Ras were grown in DMEM containing 15% FCS supplemented with L-glutamine, penicillin, and streptomycin. Transfections were done on MCF-7 cells using the lipofectamine Plus reagent. At 24 hours after transfection, MCF-7 cells were left untreated or treated with triptolide (20 ng/ml) or doxorubicin (100 nM) for 4, 8, and 16 hours and cells were collected for luciferase assay. Luciferase activity was measured in samples with equal protein concentration with a Luminometer (Analytical Luminescence Laboratory, San Diego, Calif.).
(§2) Cell viability assay. Cell viability was measured by an 3-(4,5-dimethylthiazol-2-yl)-2,5-diphenyltetrazolium bromide (MTT) assay as described above. Untreated or cells treated with triptolide and/or doxorubicin were harvested at the indicated times followed by the addition of MTT to the cells in a 96-well plate. Cells were solubilized with […] acidified with 0.1N HCl. The 96-plate was read at a wavelength of 590 nm on an iEMS Labsystems plate reader.

Data set [2] relates to HT-1080 (fibrosarcoma) cells. As to the kind of experiment: Cell viability by MTT assay, HT-1080 cells. The conditions noted are these: for Percent survival: MTT after 48 h. The method, then:
as §1, §2
A general note: Formazan colour is commonly taken as a measure of viable cells.

In another data set the test system is Mdm2. As to the kind of experiment: Mdm2 mRNA (RT-PCR) and protein (immunoblot) in MCF-7 cells. The data set is classed as cell-based, human. As to the method: RT-PCR. RNA was prepared from MCF-7 cells using Rneasy Mini Kit from Qiagen Inc. (Valencia, Calif.). cDNAs were prepared using M-MLV reverse transcriptase (Gibco) with 2 μg of total RNA. 1/20 of total cDNA was used in limited (25 cycles) PCR reactions using Taq polymerase (Gibco). The following primer pairs were used: p53 [SEQ ID NO:1] 5′-[…]-3′ and 5′-[SEQ ID NO:2] TCTTCUTXGGCTGGGGAGAG-3′, mdm2, [SEQ ID NO:3] 5′-[…]-3′ and [SEQ ID NO:4] 5′-[…]-3′, p21, [SEQ ID NO:5] 5′-[…]-3′ and [SEQ ID NO:6] 5′-[…]-3′, and glyceraldehyde-3-phosphate dehydrogenase (GAPDH)- [SEQ ID NO:7] 5′-[…]-3′ and [SEQ ID NO:8] 5′-[…]-3′.
(§3) Immunoblotting. At 8 hours after triptolide and/or doxorubicin treatment cells were harvested at the times indicated and lysed using HNET buffer (50 mM HEPES pH 7.5, 100 mM NaCl, 1 mM EGTA, and 1% Triton X-100) supplemented with 1 mM DTT, 1 mM PMSF and protease inhibitors cocktail (Boehringer Mannheim, Germany). 35 μg of protein was loaded on 10% SDS-PAGE followed by transferring to PVDF membrane. Immunoblotting was performed as previously described using a p53 mouse monoclonal antibody from Oncogene Research Products (Lee et al. (1999) J Biol Chem 274:13451-5).
In the experiments shown in FIG. 5, RT-PCR was performed using 2 μg of total RNAs extracted from MCF-7 cells. […] GADPH was used as a loading control. The plasmid pBP100-GL2 which contains a p53-binding site in the mdm2 promoter was transiently transfected into MCF-7 cells, and cellular lysates were used for the luciferase assay.
(In general: Immunoblotting shows a protein as a band on a membrane.)

The test system of data set [3] is p53-binding site in the mdm2 promoter. As to the kind of experiment: mdm2 promoter-luciferase reporter (pBP100-GL2) in MCF-7 cells. The data set is classed as cell-based, human. From the text: Reagents. PG490 (triptolide, MW 360) was obtained from Pharmagenesis (Palo Alto, Calif.). A549 (non-small cell lung cancer) and HT1080 (fibrosarcoma) cell lines were from ATCC. MCF-7 (breast cancer) cell line was obtained from Dr. Ron Weigel (Stanford University). Mouse embryonic fibroblasts (p53+/+ and p53−/−) cell lines were provided by Dr. Amato J. Giaccia (Stanford University). […] The mdm2 promoter-luciferase construct pBP100-GL2 was provided by Dr.
Louis Noumovski (Stanford University) and was made by cloning the Bgl II-Hind III fragment from the pBP100CAT vector into the pGL2-Basic Vector (Promega, Madison, Wis.). MCF-7 cells were transfected using lipofectamine Plus reagent from the Life Technologies, Inc. Cells were collected and lysates were prepared according to the manufacturer's protocol for luciferase assay (Promega Corp., Madison, Wis.). Antibodies for p53, p21^WAF1/CIP1, Mdm2, Protein phosphatase-1 (PP-1), and Erk-2 were from Calbiochem, Inc (La Jolla, Calif.) and the rabbit polyclonal Bax antibody was from Upstate Biotechnology (Lake Placid, N.Y.).
Cell culture and luciferase assay.
In the experiments shown in FIG. 5, RT-PCR was performed using 2 μg of total RNAs extracted from MCF-7 cells. […] GADPH was used as a loading control. […]
(In general: Reporter assays use an easily measured gene product as a stand-in for the process of interest.)

In the next data set the test system is Bax. Nature of the data set: Bax protein level by immunoblot in MCF-7 cells. The data set is classed as cell-based, human. Conditions: triptolide-treated MCF-7 cells. As to the method:
as §3
Immunoblot analysis using other antibodies was performed as described above. The band intensity was measured by NIH Image 1.62.

The test system of the next data set is p21 mRNA. As to the kind of experiment: p21 mRNA by Northern blot in HT1080 cells. The conditions noted are these: triptolide 20 ng/ml. The data set is classed as cell-based, human. The method, then: Northern Blot Analysis. RNA was prepared from HT1080 cells using RNeasy Mini Kit from Qiagen Inc. (Valencia, Calif.). cDNAs for Northern blot analysis for p21 and p53 were prepared using RT-PCR with […] of total RNA. The following primer pairs were used: p53, (SEQ ID NO:11) 5′-[…]-3′ and (SEQ ID NO:12) 5′-[…]-3′; p21, (SEQ ID NO:13) 5′-[…]-3′ and (SEQ ID NO:14) 5′-[…]-3′; and glyceraldehyde-3-phosphate dehydrogenase, (SEQ ID NO:15) 5′-[…]-3′ and 5′-(SEQ ID NO:16) […]-3′.

Data set [4] can be described thus: Observable toxicity in treated mice (body weight, activity, respiration). It is filed as in vivo. The method, then:
PG490-88 (0.75 mg/kg) as measured by a change in body weight, altered activity or labored respiration.

The subject of a further data set is Dx5 cells. Conditions: cited from earlier work.
The mark [5] stands for this setting: HT-1080, Triptolide 5 ng/ml, Doxorubicin 100 nM, alone or combined.

Consider `CC(C)[C@]12O[C@H]1[C@@H]1O[C@]13[C@]1(O[C@H]1C[C@H]1C4=C(CC[C@@]13C)C(=O)OC4)[C@@H]2O` [PG490, triptolide], for which the cytotoxicity at 0.02 µg/mL in data set [1] (Homo sapiens, MCF7, read-out: decrease in cell viability, MCF-7, triptolide 20 ng/ml) amounted to 70%; in data set [2] (Homo sapiens, HT-1080, read-out: decrease in cell viability) it was 74%. Further, the Percent survival in data set [1] (MCF-7, Triptolide 5 ng/ml) came to 63.9 ± 8.1%; in data set [1] (MCF-7, Triptolide 20 ng/ml) it was 30.5 ± 7.6%; in data set [2] (setting [5]) it was 90.4 ± 6.2%; in data set [2] (HT-1080, Triptolide 20 ng/ml alone or with Doxorubicin 100 nM) it was 26.0 ± 5.2%. For the same molecule, the “change in levels of the Mdm2 protein” value in the data set with Mdm2 (MCF-7, triptolide 5 ng/ml, 8 or 24 hours) is “no significant change”. Moreover, the “increase in Mdm2 protein” value in the data set on Mdm2 (MCF-7, triptolide 20 ng/ml, 8 h) was “approximately 1.5 fold”. For the same molecule, the Mdm2 protein entry in the data set on Mdm2 (MCF-7, triptolide 20 ng/ml, 24 h) is recorded as “almost a complete loss”. Besides, the “mdm2 mRNA” value in the data set with Mdm2 (cells treated with triptolide) is on record as “time-dependent decrease”. The “decrease of transactivation of the reporter construct” value in data set [3] (MCF-7, triptolide 20 ng/ml) is “approximately 30%”. Besides, in the data set with Bax, the “change in Bax” value is “no significant change”. Also, the “effect on doxorubicin-mediated induction of p21 mRNA” value in the data set with p21 mRNA is reported as “completely blocked”.

With `CC(C)[C@]12O[C@H]1[C@@H]1O[C@]13[C@]1(O[C@H]1C[C@H]1C4=C(CC[C@@]13C)C(=O)OC4)[C@@H]2OC(=O)CCC(=O)[O-].[Na+]` [PG490-88, 14-succinyl triptolide sodium salt], the “observable toxicity (change in body weight, altered activity or labored respiration)” value in data set [4] (PG490-88 0.75 mg/kg) is on record as “no observable toxicity”. Moreover, the tolerability entry in data set [4] (triptolide dosage on molar comparison to PG490-88 70 μg/mouse/week) is given as “well tolerated”.

For the molecule `COc1cccc2c1C(=O)c1c(O)c3c(c(O)c1C2=O)C[C@@](O)(C(=O)CO)C[C@@H]3O[C@H]1C[C@H](N)[C@H](O)[C@H](C)O1` [doxorubicin, reference compound], in data set [2] (setting [5]), the Percent survival turned out to be 93.6 ± 4.3%. Moreover, the cytotoxicity at 0.1 µM in data set [2] (Homo sapiens, HT-1080, 48 h, read-out: decrease in cell viability, HT-1080, triptolide 5 ng/ml (13.5 nM), doxorubicin 100 nM, alone or combined, 48 hours) was 6.4%. The “increase in the Mdm2 mRNA and protein” value with Mdm2 (MCF-7 cells, doxorubicin 100 nM) is 1.5-2 fold. Moreover, in data set [3] (MCF-7, doxorubicin 100 nM, by 16 h), the “increase of transactivation of the Mdm2 reporter” value came to 15%. The “fold more resistant than the MES-SA parent cell line” value in the data set with Dx5 cells was 100 fold.
